The text below walks through data of patent US20230051589A1, “COMPOUNDS AND COMPOSITIONS FOR TREATING CONDITIONS ASSOCIATED WITH NLRP ACTIVITY” (Novartis AG, priority 2018, published 2023).

In the first assay the test system is IL-1β production in PMA-differentiated THP-1 cells. The assay is described as follows: IL-1β production in PMA-differentiated THP-1 cells stimulated with gramicidin (hTHP-1 assay, 2% fetal bovine serum; Procedures 1-3). It counts as cell-based, human. Particulars: Homo sapiens, THP-1, Table B1; hTHP-1 assay containing 2% fetal bovine serum, gramicidin stimulation, IL-1β readout; read-out: hTHP-1 IC50 (average). The method, boiled down:
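PMA-primed THP-1 cells (20 ng/ml PMA, 16-18 h) in RPMI with 2% FBS were pre-incubated with compounds for 1 h, from 100 μM downward in 3-fold steps (0.37% DMSO final), then stimulated with 5 μM gramicidin for 2 h. IL-1β in the supernatant was quantified by HTRF.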
For the compound `CC(O)(CO)c1cc(F)c(S(N)(=O)=NC(=O)Nc2c3c(c(C#N)c4c2CCC4)CCC3)s1` (stereo not drawn) [Compound 411], the half-inhibitory concentration (IC50) lay within 0.04 to 0.2 µM. With `CNCc1cc(F)c(S(N)(=O)=NC(=O)Nc2c3c(cc4c2CCC4)CCC3)s1` (stereo not drawn) [Compound 412], the IC50 fell in the range of 0.04 to 0.2 µM.

Still in this assay, the particulars now being: Homo sapiens, THP-1, hTHP-1 assay containing 2% fetal bovine serum, Table B2, class symbols; read-out: IC50.
Consider `C[C@](O)(CO)c1ncc(S(N)(=O)=NC(=O)Nc2c3c(cc4c2CC4)CCC3)s1` (stereo partly drawn) [919f^], for which the IC50 lay within 0.008 to 0.04 µM.

On to `NS(=O)(=NC(=O)Nc1c2c(cc3c1CCC3)CCC2)c1ccc([C@@H]2CCCN2)s1` (stereo partly drawn) [921f^], for which the IC50 was in the range of 0.2 to 1 µM. Consider `N[S@@](=O)(=NC(=O)Nc1c2c(cc3c1CCC3)CCC2)c1ccc(C2CCN2)cc1` (stereo partly drawn) [Compound 802a], for which the IC50 was 0.2 to 1 µM. Still for that read-out and setting: the result for `N[S@](=O)(=NC(=O)Nc1c2c(cc3c1CCC3)CCC2)c1ccc([C@H]2CCN2)cc1` [Compound 802b] reads 5 to 30 µM; that for `N[S@](=O)(=NC(=O)Nc1c2c(cc3c1CCC3)CCC2)c1ccc([C@@H]2CCN2)cc1` [Compound 802c], 5 to 30 µM. The same measure, in the same setting: the same measure for `CC(C)(O)c1ccc([S@](N)(=O)=NC(=O)Nc2c3c(cc4c2C(=O)CC4)CCC3)cn1` [Compound 804b]: 0.2 to 1 µM. `CC(C)(O)c1ccnc([S@](N)(=O)=NC(=O)Nc2c3c(c(C#N)c4c2CCC4)CCC3)c1` [Compound 818a]: the IC50 was 1 to 5 µM. On the same count and under the same terms, the result for `CC(C)(O)c1ccnc([S@@](N)(=O)=NC(=O)Nc2c3c(c(C#N)c4c2CCC4)CCC3)c1` [Compound 818b] reads 0.2 to 1 µM. Same read-out and setting: the result for `C[C@H](N[S@@](=O)(=NC(=O)Nc1c2c(cc3c1CCC3)CCC2)c1cnc(C(C)(C)O)s1)c1ccccc1` [Compound 887a] reads 5 to 30 µM; that for `CN(C)Cc1ccc(S(N)(=O)=NC(=O)Nc2c3c(cc4c2CCC4)CCC3)s1` (stereo not drawn) [Compound 889], 1 to 5 µM. Turning to `CN(C)Cc1ccc([S@](N)(=O)=NC(=O)Nc2c3c(cc4c2CCC4)CCC3)s1` [Compound 889a], the IC50 lay within 5 to 30 µM. Still for that read-out and setting: the same measure for `CN(C)Cc1ccc([S@@](N)(=O)=NC(=O)Nc2c3c(cc4c2CCC4)CCC3)s1` [Compound 889b]: 0.2 to 1 µM; for `CN(Cc1ccc(S(N)(=O)=NC(=O)Nc2c3c(cc4c2CC4)CCC3)c(F)c1)C1CCC1` (stereo not drawn) [Compound 891]: 1 to 5 µM. For the compound `CC(NC1CCC1)c1ccc(S(N)(=O)=NC(=O)Nc2c3c(cc4c2CC4)CCC3)c(F)c1` (stereo not drawn) [Compound 892], the concentration for half-maximal inhibition (IC50) is 0.2 to 1 µM. Still for that read-out and setting: the same measure for `CC(C)(O)c1sc(S(N)(=O)=NC(=O)Nc2c3c(cc4c2CCC4)CCC3)nc1CO` (stereo not drawn) [Compound 893]: 0.04 to 0.2 µM. Same read-out and setting: the same measure for `CC(C)(O)c1cccc(S(N)(=O)=NC(=O)Nc2c3c(cc4c2CCC4)CCC3)n1` (stereo not drawn) [Compound 895]: 1 to 5 µM; for `NS(=O)(=NC(=O)Nc1c2c(cc3c1CCC3)CCC2)c1sc(CNC2CCC2)cc1F` (stereo not drawn) [Compound 898]: 0.2 to 1 µM.

On to `CN1CCC(c2ccc(S(N)(=O)=NC(=O)Nc3c4c(cc5c3CCC5)CCC4)c(F)c2)C1` (stereo not drawn) [Compound 899], for which the IC50 was in the range of 5 to 30 µM.

Still in this assay, the particulars now being: Homo sapiens, THP-1, hTHP-1 assay containing 2% fetal bovine serum, Table B2, given as bound; read-out: IC50.
On to `CC(C)(O)c1ccc([S@@](N)(=O)=NC(=O)Nc2c3c(cc4c2C(=O)CC4)CCC3)cn1` [Compound 804a], for which the IC50 is more than 30 µM. On the same count and under the same terms, the same measure for `C[C@H](N[S@](=O)(=NC(=O)Nc1c2c(cc3c1CCC3)CCC2)c1cnc(C(C)(C)O)s1)c1ccccc1` [Compound 887b]: more than 30 µM.

Staying with this assay, now noted: Table B3; hTHP-1 assay containing 2% fetal bovine serum, gramicidin stimulation, IL-1β readout; read-out: hTHP-1 IC50.
Regarding `NS(=O)(=NC(=O)Nc1c2c(cc3c1CC3)CCC2)c1cc2c(s1)CCN[C@H]2C(F)F` (single isomer, unassigned) [Example 877, (S or R,4R)-4-(difluoromethyl)-N′-((2,4,5,6-tetrahydro-1H-cyclobuta[f]inden-3-yl)carbamoyl)-4,5,6,7-tetrahydrothieno[3,2-c]pyridine-2-sulfonimidamide], the IC50 was in the range of 1 to 5 µM.

For `CC(O)(CO)c1nc(CO)c(S(N)(=O)=NC(=O)Nc2c3c(cc4c2CCC4)CCC3)s1` (stereo in doubt) [Example 755, 2-((S)-1,2-dihydroxypropan-2-yl)-N′-((1,2,3,5,6,7-hexahydro-s-indacen-4-yl)carbamoyl)-4-(hydroxymethyl)thiazole-5-sulfonimidamide], the 50% inhibitory concentration (IC50) was 0.2 to 1 µM.
